Source: paper PMC12369603, “Functional characterization of antennae-enriched chemosensory protein 4 in emerald ash borer, Agrilus planipennis” (PeerJ, 2025)
Several values for one entry are separate records, joined by “and”; a condition that tells them apart may be missing. Equal values may be shown once. Read-outs that look alike come from different tables or passages of the source.

Molecular target: recombinant AplaCSP4 (Agrilus planipennis chemosensory protein 4) (Agrilus planipennis, UniProt A0A1W4XLL0)
Sequence (A0A1W4XLL0 entry or part of it): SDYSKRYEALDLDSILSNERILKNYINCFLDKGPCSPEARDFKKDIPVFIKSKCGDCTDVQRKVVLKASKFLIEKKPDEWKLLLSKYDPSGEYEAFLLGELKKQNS
Assay: biochemical
Format: binding
Details: for Kd: read-out: K D ±SE (dissociation constant); for binding to AplaCSP4 (in words): discussion of fluorescence competitive binding results; for Competitive binding capability(%) / activity at 2 µM / activity at 4 µM / activity at 6 µM / activity at 8 µM / activity at 10 µM / activity at 12 µM: three replicate columns, 100 at 0 μM
Experimental: Specifically, the binding affinities of AplaCSP4 for 43 volatile organic compounds were determined using F-380 fluorescence spectrophotometer (Tianjin, China) with a 10 nm slits and a 1 cm light path. These 43 substances are common green leaf volatiles, among which 16 volatiles originate from the ash tree. […]

[1] = AplaCSP4 and 1-NPN each 2 µM, ligands with minimal binding single experiment, read-out: K D ±SE, “–” = no binding (IC50 >16 μM, KD not calculated)
[2] = ligand concentration 2 μM, 2 µM
[3] = ligand concentration 4 μM, 4 µM
[4] = ligand concentration 6 μM, 6 µM
[5] = ligand concentration 8 μM, 8 µM
[6] = ligand concentration 10 μM, 10 µM
[7] = ligand concentration 12 μM, 12 µM
[8] = pH 7.4, read-out: Competitive binding capability(%), ligand concentration 2 μM
[9] = pH 7.4, read-out: Competitive binding capability(%), ligand concentration 4 μM
[10] = pH 7.4, read-out: Competitive binding capability(%), ligand concentration 6 μM
[11] = pH 7.4, read-out: Competitive binding capability(%), ligand concentration 8 μM
[12] = pH 7.4, read-out: Competitive binding capability(%), ligand concentration 10 μM
[13] = pH 7.4, read-out: Competitive binding capability(%), ligand concentration 12 μM

**Q.** For `CC(C)=CCCC(C)=CC=O` (mixture of isomers) [Citral], which IC50 is on record?
**A.** The IC50 was over 16 µM.

**Q.** With `CC(=O)O[C@@H]1C[C@H]2CC[C@]1(C)C2(C)C` (racemic) [Isobornyl acetate] as the compound, how does the IC50 read?
**A.** The IC50 was over 16 µM.

**Q.** Which results are given for `C=C(C)C1CC=C(C)CC1` (single isomer, unassigned; (+)) [(+)-Limonene]?
**A.** Kd (AplaCSP4 and 1-NPN each 2 µM, 50 mM Tris–HCl pH 7.4, KD = IC50/(1+[1-NPN]/K1-NPN), mean of three experiments): 11.3 ± 0.69 µM; binding to AplaCSP4 (in words): binding capabilities; Competitive binding capability(%) (ligand concentration 2 μM): 97.2535% and 97.4709% and 95.8953%; Competitive binding capability(%) (ligand concentration 4 μM): 90.8935% and 90.3604% and 88.2267%; Competitive binding capability(%) (ligand concentration 6 μM): 83.0381% and 84.401% and 80.748%; Competitive binding capability(%) (ligand concentration 8 μM): 77.7418% and 78.3215% and 71.3561%; Competitive binding capability(%) (ligand concentration 10 μM): 70.6734% and 71.72% and 63.3296%; Competitive binding capability(%) (ligand concentration 12 μM): 65.4243% and 64.4472% and 56.5332%

**Q.** Which IC50 does the source give for `CC12CCC(CC1)C(C)(C)O2` [1,8-Cineole] here?
**A.** Its IC50 is over 16 µM.

**Q.** With `CCCCCCO` [1-Hexanol] as the compound, how does the IC50 read?
**A.** Its IC50 is over 16 µM.

**Q.** With `CCCCCCCCO` [1-Octanol] as the compound, how does the IC50 [1] read?
**A.** Its IC50 is over 16 µM.

**Q.** For `C=CC(O)CCCCC` (stereo not drawn) [1-Octen-3-ol], which IC50 is on record?
**A.** Its IC50 is over 16 µM.

**Q.** For `CCCCC(C)=O` [2-Hexanone], which IC50 is on record?
**A.** The IC50 was over 16 µM.

**Q.** With `CCc1ccc(C(C)=O)cc1` [4′-Ethylacetophenone] as the compound, how does the IC50 read?
**A.** Its IC50 is over 16 µM.

**Q.** Which IC50 [1] does the source give for `C=C1CCC2CC1C2(C)C` (stereo not drawn) [(-)-β-Pinene] here?
**A.** Its IC50 is over 16 µM.

**Q.** How did the IC50 turn out when `C=C(C)[C@@H]1CC=C(C)C(=O)C1` [(R)-(-)-Carvone] was run?
**A.** The IC50 was over 16 µM.

**Q.** Which IC50 does the source give for `O=Cc1ccccc1` [Benzaldehyde] here?
**A.** The IC50 was over 16 µM.

**Q.** For `CCCCCCCCCC=O` [Decanal], which IC50 [1] is on record?
**A.** Its IC50 is over 16 µM.

**Q.** Which “Competitive binding capability(%)” value [2] does the source give for `CCCCCCCCCC` [Decane] here?
**A.** The value was 60.8138% and 70.0208%.

**Q.** And the “Competitive binding capability(%)” value [3]?
**A.** Its value is 45.6655% and 49.8433%.

**Q.** And the “Competitive binding capability(%)” value [4]?
**A.** Its value is 42.3979% and 46.6766%.

**Q.** And the “Competitive binding capability(%)” value [5]?
**A.** The value was 41.2683% and 43.4013%.

**Q.** What about the “Competitive binding capability(%)” value [6] of the same compound?
**A.** The value was 39.2004% and 42.0377%.

**Q.** And the “Competitive binding capability(%)” value [7]?
**A.** The value was 38.5773% and 39.0548%.

**Q.** And the activity at 2 µM [8]?
**A.** Its activity at 2 µM is 57.1%.

**Q.** What about the activity at 4 µM [9] of the same compound?
**A.** Its activity at 4 µM is 45.8%.

**Q.** And the activity at 6 µM [10]?
**A.** Its activity at 6 µM is 42.4%.

**Q.** What about the activity at 8 µM [11] of the same compound?
**A.** The activity at 8 µM was 40.4%.

**Q.** What about the activity at 10 µM [12] of the same compound?
**A.** Its activity at 10 µM is 39.9%.

**Q.** And the activity at 12 µM [13]?
**A.** The activity at 12 µM was 38.2%.

**Q.** And the Kd?
**A.** Its Kd is 2.87 ± 0.44 µM.

**Q.** What does the source list for `CCCCCCCCCCCC` [Dodecane]?
**A.** binding to AplaCSP4 (in words): binding capabilities; Competitive binding capability(%) [2]: 62.371% and 59.0946%; Competitive binding capability(%) [3]: 40.5144% and 36.3519%; Competitive binding capability(%) [4]: 30.0968% and 29.949%; Competitive binding capability(%) [5]: 26.7121% and 28.4784%; Competitive binding capability(%) [6]: 26.2641% and 27.4122%; Competitive binding capability(%) [7]: 25.5826% and 26.3545%; activity at 2 µM [8]: 63.1%; activity at 4 µM [9]: 37.5%; activity at 6 µM [10]: 29.7%; activity at 8 µM [11]: 27.4%; activity at 10 µM [12]: 26.7%; activity at 12 µM [13]: 25.8%; Kd: 1.93 ± 0.09 µM

**Q.** How did the IC50 turn out when `C=CCc1ccc(O)c(OC)c1` [Eugenol] was run?
**A.** The IC50 was over 16 µM.

**Q.** With `CCCCCC=O` [Hexanal] as the compound, how does the IC50 read?
**A.** Its IC50 is over 16 µM.

**Q.** Which IC50 [1] does the source give for `CCCCCCOC(C)=O` [Hexyl acetate] here?
**A.** The IC50 was over 16 µM.

**Q.** `CCCCCCOC(=O)CCC` [Hexyl butyrate] was tested. Which “Competitive binding capability(%)” value [2] did it give?
**A.** The value was 93.4207% and 91.053%.

**Q.** And the “Competitive binding capability(%)” value [3]?
**A.** Its value is 84.76% and 83.3555%.

**Q.** What about the “Competitive binding capability(%)” value [4] of the same compound?
**A.** Its value is 77.5021% and 75.6266%.

**Q.** What about the “Competitive binding capability(%)” value [5] of the same compound?
**A.** Its value is 71.3681% and 69.2316%.

**Q.** What about the “Competitive binding capability(%)” value [6] of the same compound?
**A.** The value was 65.618% and 62.7841%.

**Q.** What about the “Competitive binding capability(%)” value [7] of the same compound?
**A.** Its value is 61.0388% and 57.6483%.

**Q.** What about the activity at 2 µM (pH 7.4, ligand concentration 2 μM, read-out: Competitive binding capability(%)) of the same compound?
**A.** The activity at 2 µM was 93.1%.

**Q.** What about the activity at 4 µM (pH 7.4, ligand concentration 4 μM, read-out: Competitive binding capability(%)) of the same compound?
**A.** Its activity at 4 µM is 85.4%.

**Q.** What about the activity at 6 µM (pH 7.4, ligand concentration 6 μM, read-out: Competitive binding capability(%)) of the same compound?
**A.** The activity at 6 µM was 78.8%.

**Q.** And the activity at 8 µM (pH 7.4, ligand concentration 8 μM, read-out: Competitive binding capability(%))?
**A.** Its activity at 8 µM is 72.2%.

**Q.** And the activity at 10 µM (pH 7.4, ligand concentration 10 μM, read-out: Competitive binding capability(%))?
**A.** The activity at 10 µM was 65.8%.

**Q.** What about the activity at 12 µM (pH 7.4, ligand concentration 12 μM, read-out: Competitive binding capability(%)) of the same compound?
**A.** The activity at 12 µM was 61.7%.

**Q.** What about the Kd of the same compound?
**A.** The Kd was 11.5 ± 0.42 µM.

**Q.** Which IC50 does the source give for `C=CC(C)(O)CCC=C(C)C` (stereo not drawn) [Linalool] here?
**A.** The IC50 was over 16 µM.

**Q.** How did the IC50 turn out when `COC(=O)c1ccccc1` [Methyl benzoate] was run?
**A.** Its IC50 is over 16 µM.

**Q.** `COC(=O)c1ccccc1O` [Methyl salicylate] was tested. Which IC50 did it give?
**A.** Its IC50 is over 16 µM.
